Source: ChEMBL document CHEMBL1126894 (J Med Chem, 1993)
pIC50, pKi: −log10 of the molar value. Counter-ions that a name gives are not always drawn.

How the values were obtained:
[1] = molecular target: T1, 5-hydroxytryptamine receptor 1A (Rattus norvegicus, UniProt P19327); assay: Binding affinity by measuring displacement of [3H]-8-OH-DPAT from 5-hydroxytryptamine 1A receptor in rat hippocampus; type: tissue-based
T1 sequence (P19327 whole entry): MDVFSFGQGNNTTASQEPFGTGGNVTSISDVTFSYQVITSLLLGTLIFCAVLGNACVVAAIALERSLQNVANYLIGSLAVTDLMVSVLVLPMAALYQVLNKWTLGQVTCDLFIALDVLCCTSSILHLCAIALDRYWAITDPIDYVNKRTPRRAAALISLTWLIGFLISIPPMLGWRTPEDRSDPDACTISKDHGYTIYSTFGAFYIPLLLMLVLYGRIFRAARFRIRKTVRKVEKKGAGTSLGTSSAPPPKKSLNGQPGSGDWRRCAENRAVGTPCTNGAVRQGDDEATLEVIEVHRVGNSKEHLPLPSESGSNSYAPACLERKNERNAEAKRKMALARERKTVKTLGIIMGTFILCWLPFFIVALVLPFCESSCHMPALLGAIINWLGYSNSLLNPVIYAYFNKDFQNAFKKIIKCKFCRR

[2] = molecular target: T1, 5-hydroxytryptamine receptor 1A; assay: Inhibitory concentration against 5-hydroxytryptamine 1A receptor
Mus musculus [3] = assay: Ability to reverse scopolamine-induced amnesia in a passive avoidance test to assess memory impairment administered perorally 1 mg/kg (no. of mice); type: functional; settings: route oral
D(2) dopamine receptor = D(2) dopamine receptor (Homo sapiens, UniProt P14416); assay: Binding affinity for DA2 receptor
Chain of D(2) dopamine receptor (P14416 whole entry): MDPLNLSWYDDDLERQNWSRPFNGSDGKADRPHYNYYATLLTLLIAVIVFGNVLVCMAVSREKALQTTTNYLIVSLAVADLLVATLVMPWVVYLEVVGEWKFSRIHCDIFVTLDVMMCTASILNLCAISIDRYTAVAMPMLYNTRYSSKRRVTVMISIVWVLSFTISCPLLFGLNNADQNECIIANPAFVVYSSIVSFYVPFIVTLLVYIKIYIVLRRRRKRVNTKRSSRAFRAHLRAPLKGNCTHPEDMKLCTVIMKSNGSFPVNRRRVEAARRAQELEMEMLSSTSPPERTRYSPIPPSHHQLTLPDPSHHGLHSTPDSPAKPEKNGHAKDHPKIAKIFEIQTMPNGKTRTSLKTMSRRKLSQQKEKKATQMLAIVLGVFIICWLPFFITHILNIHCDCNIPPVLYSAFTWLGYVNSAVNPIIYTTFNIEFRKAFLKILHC

Rattus norvegicus [4] = assay: Anticonflict activity on water lick conflict test in rats by measuring no. of shocks in 5 min. administered perorally at 3 mg/kg; type: functional; settings: route oral
[5] = molecular target: T1, 5-hydroxytryptamine receptor 1A; assay: Binding affinity for 5-hydroxytryptamine 1A receptor by use of [3H]8-OH-DPAT in male rat
Mus musculus [6] = assay: Ability to reverse scopolamine-induced amnesia in a passive avoidance test to assess memory impairment administered perorally 3 mg/kg; type: functional; settings: route oral
Rattus norvegicus [7] = assay: Anticonflict activity on water lick conflict test in rats by measuring no. of shocks in 5 min. administered perorally at 10 mg/kg; type: functional; settings: route oral
Mus musculus [8] = assay: Ability to reverse scopolamine-induced amnesia in a passive avoidance test to assess memory impairment administered perorally 1 mg/kg; type: functional; settings: route oral
Mus musculus [9] = assay: Ability to reverse scopolamine-induced amnesia in a passive avoidance test to assess memory impairment administered perorally at 30 mg/kg; type: functional; settings: route oral
Rattus norvegicus [10] = assay: Anticonflict activity on water lick conflict test in rats by measuring no. of shocks in 5 min. administered perorally at 1 mg/kg; type: functional; settings: route oral
Mus musculus [11] = assay: Ability to reverse scopolamine-induced amnesia in a passive avoidance test to assess memory impairment administered perorally 30 mg/kg; type: functional; settings: route oral
Rattus norvegicus [12] = assay: Anticonflict activity on water lick conflict test in rats is no of shocks in 5 min. administered perorally 1 mg/kg (no. of rats); type: functional; settings: route oral
Mus musculus [13] = assay: Ability to reverse scopolamine-induced amnesia in a passive avoidance test to assess memory impairment administered perorally 10 mg/kg; type: functional; settings: route oral
Rattus norvegicus [14] = assay: Anticonflict activity on water lick conflict test in rats by measuring no. of shocks in 5 min. administered perorally at 30 mg/kg; type: functional; settings: route oral
Mus musculus [15] = assay: Ability to reverse scopolamine-induced amnesia in a passive avoidance test to assess memory impairment; administered perorally 5 mg/kg (no. of mice); type: functional; settings: route oral
Rattus norvegicus [16] = assay: Anticonflict activity on water lick conflict test in rats is no. of shocks in 5 min; administered perorally 10 mg/kg (no. of rats); type: functional; settings: route oral

O=C(NCc1ccc2c(c1)OCO2)C1Cc2c(sc3ccccc23)CN1 (single isomer, unassigned)
pIC50 [1]: < 5.30

CC(C)(C)C1CCC(NC(=O)[C@H]2Cc3c(sc4ccccc34)CN2)CC1 (stereo partly drawn)
pIC50 [1]: 7.28

O=C(NC1CCC1)[C@H]1Cc2c(sc3ccccc23)CN1
pIC50 [1]: 6.63

O=C(NN1CCCCC1)[C@H]1Cc2c(sc3ccccc23)CN1
pIC50 [1]: 6.68

CCCCCCNC(=O)[C@H]1Cc2c(sc3ccccc23)CN1
pIC50 [1]: 7.04

O=C(NC12CC3CC(CC(C3)C1)C2)[C@H]1Cc2c(sc3ccccc23)CN1
pIC50 [1]: 7.21

CC1CCC(NC(=O)[C@H]2Cc3c(sc4ccccc34)CN2)CC1 (stereo partly drawn)
pIC50 [1]: 7.49

O=C(NC1CCCCCC1)[C@H]1Cc2c(sc3ccccc23)CN1
pIC50 [1]: 7.55

CCC(CC)NC(=O)[C@H]1Cc2c(sc3ccccc23)CN1
pIC50 [1]: 6.90

O=C(NCC1CCCCC1)[C@H]1Cc2c(sc3ccccc23)CN1
pIC50 [1]: 7.69

CCCCCCCNC(=O)[C@H]1Cc2c(sc3ccccc23)CN1
pIC50 [2]: 6.90

O=C(NC1CCCCC1)[C@H]1Cc2c(sc3ccccc23)CN1
pIC50 [1]: 7.57

Cc1ccc(CNC(=O)[C@H]2Cc3c(sc4ccccc34)CN2)cc1
pIC50 [1]: 6.88

O=C(NC1CC2CCC1C2)[C@H]1Cc2c(sc3ccccc23)CN1 (stereo partly drawn)
pIC50 [1]: 7.18

O=C(Nc1ccccc1)[C@H]1Cc2c(sc3ccccc23)CN1
pIC50 [1]: 6.57

CN1[C@@H]2C[C@@H](OC(=O)[C@H](CO)c3ccccc3)C[C@H]1[C@@H]1O[C@@H]12 [SCOPOLAMINE]
Latency to step through (Mus musculus [3]): 16 s

C[C@H](NC(=O)[C@H]1Cc2c(sc3ccccc23)CN1)c1ccccc1
pIC50 [1]: 7.23

O=C1[C@@H]2[C@H]3CC[C@H](C3)[C@@H]2C(=O)N1CCCCN1CCN(c2ncccn2)CC1 [TANDOSPIRONE HYDROCHLORIDE]
pKi (D(2) dopamine receptor): 7.55

O=C(NC1CCCCC1)[C@@H]1Cc2c(sc3ccccc23)CN1
pIC50 [1]: < 5.30

O=C(OC1CCCCCCC1)[C@H]1Cc2c(sc3ccccc23)CN1
pIC50 [1]: 7.17

Cl.O=C(NCc1ccc2c(c1)OCO2)[C@H]1Cc2c(sc3ccccc23)CN1
No. of shocks (Rattus norvegicus [4]): 22.9 | pKi [5]: 7.27 | Latency to step through (Mus musculus [6]): 89 s | No. of shocks (Rattus norvegicus [7]): 28.3 | Latency to step through (Mus musculus [8]): 94.6 s | Latency to step through (Mus musculus [9]): 104.7 s | pIC50 [1]: 7.27 | No. of shocks (Rattus norvegicus [10]): 22.1

O=C(OC1CCCCC1)[C@H]1Cc2c(sc3ccccc23)CN1
pIC50 [1]: 7.30

CC1CCCCC1NC(=O)[C@H]1Cc2c(sc3ccccc23)CN1 (stereo partly drawn)
pIC50 [1]: 7.55

O=C(OC1CCCC1)[C@H]1Cc2c(sc3ccccc23)CN1
pIC50 [1]: 6.92

O=C(NC1CCCC1)[C@H]1Cc2c(sc3ccccc23)CN1
pIC50 [1]: 6.96

O=C(OC1CCCCCC1)[C@H]1Cc2c(sc3ccccc23)CN1
pIC50 [1]: 7.26

Cl.O=C(NC1CCCCC1O)[C@H]1Cc2c(sc3ccccc23)CN1 (stereo partly drawn)
Latency to step through (Mus musculus [11]): 50.8 s | No. of shocks (Rattus norvegicus [4]): 34.9 | No. of shocks (Rattus norvegicus [12]): 21.6 | Latency to step through (Mus musculus [6]): 68.2 s | Latency to step through (Mus musculus [13]): 41.6 s | No. of shocks (Rattus norvegicus [14]): 26.1 | pIC50 [1]: 6.83

O=C(NC1CCCCCCC1)[C@H]1Cc2c(sc3ccccc23)CN1
pIC50 [1]: 7.64

CN1C(=O)CN=C(c2ccccc2)c2cc(Cl)ccc21 [DIAZEPAM]
Latency to step through (Mus musculus [15]): 10.6 s | No. of shocks (Rattus norvegicus [16]): 25.6
